Among the data in patent US20240101576A1, “HETEROCYCLIC INHIBITORS OF EGFR AND/OR HER2, FOR USE IN THE TREATMENT OF CANCER” (Scorpion Therapeutics, Inc., priority 2020, published 2024) are IC50 values, retold here.

Common to all, as to assay type: cell-based
For one experiment, the target named is T1, EGFR WT (Ba/F3 cells) (Homo sapiens, UniProt P00533).
T1 construct: expressed in transfected cells; host or cells: Ba/F3 (murine pro-B cells), retroviral transduction, puromycin selection, maintained with EGF
Nature of the experiment: Inhibitor activity on EGFR-dependent cell growth (CellTiter-Glo, 72 h), Ba/F3 EGFR WT. To be noted: read-out: BaF3 WT IC50. In outline:
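This growth assay used Ba/F3 cells that depend on wild-type EGFR and are kept in EGF without IL3. Compounds were made up as 10 mM DMSO stocks and diluted 3-fold over 10 points. 120 nL went onto 600 cells/well. After 72 hours, 40 μL CellTiter-Glo was added and luminescence read on EnVision after 30 min.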

Experiment [1] concerns the target T2, EGFR exon 20 FQEA Ins A763_V764 (Ba/F3 cells) (Homo sapiens, UniProt P00533, INS763FQEA).
T2 construct: expressed in transfected cells; host or cells: Ba/F3 (murine pro-B cells), retroviral transduction, puromycin selection, IL3-independent pool
Nature of the experiment: Inhibitor activity on EGFR-dependent cell growth (CellTiter-Glo, 72 h), Ba/F3 EGFR exon 20 FQEA Ins. Conditions: read-out: BaF3 FQEA IC50. In outline: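 Mutant EGFR drives IL3-independent growth of engineered Ba/F3 pools. L858R cells go in at 400/well, L858R/C797S at 600, and exon 19del or FQEA insertion at 800. After 72 h with compound, plates are equilibrated 15 min at RT. Reagent is added 1:1, followed by 30 min and a luminescence read.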

For experiment [2], the target named is T3, EGFR exon 20 ASV Ins V769_D770 (Ba/F3 cells) (Homo sapiens, UniProt P00533, INS769ASV).
T3 construct: expressed in transfected cells; host or cells: Ba/F3 (murine pro-B cells), retroviral transduction, puromycin selection, IL3-independent pool
Nature of the experiment: Inhibitor activity on EGFR-dependent cell growth (CellTiter-Glo, 72 h), Ba/F3 EGFR exon 20 ASV Ins. Conditions: read-out: BaF3 ASV IC50. In outline: (§1)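 IC50s derive from a sigmoidal dose–response fit of CellTiter-Glo signal. The signal was normalised between […]-treated cells and cell-free medium. Ba/F3 mutant-EGFR cells, seeded at 400–800/well depending on the line, had 72 h of exposure to a 10-point, 3-fold compound series.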

The target of experiment [3] is T4, EGFR exon 20 SVD Ins D770_N771 (Ba/F3 cells) (Homo sapiens, UniProt P00533, INS770SVD).
T4 construct: expressed in transfected cells; host or cells: Ba/F3 (murine pro-B cells), retroviral transduction, puromycin selection, IL3-independent pool
Nature of the experiment: Inhibitor activity on EGFR-dependent cell growth (CellTiter-Glo, 72 h), Ba/F3 EGFR exon 20 SVD Ins. To be noted: read-out: BaF3 SVD IC50. In outline: as §1
Background: ATP-based viability assays read luminescence as a measure of living cells.

One may read the IC50 as the concentration needed to halve the response being measured.

T2 sequence (P00533 with tags, fused parts or gaps INS763FQEA): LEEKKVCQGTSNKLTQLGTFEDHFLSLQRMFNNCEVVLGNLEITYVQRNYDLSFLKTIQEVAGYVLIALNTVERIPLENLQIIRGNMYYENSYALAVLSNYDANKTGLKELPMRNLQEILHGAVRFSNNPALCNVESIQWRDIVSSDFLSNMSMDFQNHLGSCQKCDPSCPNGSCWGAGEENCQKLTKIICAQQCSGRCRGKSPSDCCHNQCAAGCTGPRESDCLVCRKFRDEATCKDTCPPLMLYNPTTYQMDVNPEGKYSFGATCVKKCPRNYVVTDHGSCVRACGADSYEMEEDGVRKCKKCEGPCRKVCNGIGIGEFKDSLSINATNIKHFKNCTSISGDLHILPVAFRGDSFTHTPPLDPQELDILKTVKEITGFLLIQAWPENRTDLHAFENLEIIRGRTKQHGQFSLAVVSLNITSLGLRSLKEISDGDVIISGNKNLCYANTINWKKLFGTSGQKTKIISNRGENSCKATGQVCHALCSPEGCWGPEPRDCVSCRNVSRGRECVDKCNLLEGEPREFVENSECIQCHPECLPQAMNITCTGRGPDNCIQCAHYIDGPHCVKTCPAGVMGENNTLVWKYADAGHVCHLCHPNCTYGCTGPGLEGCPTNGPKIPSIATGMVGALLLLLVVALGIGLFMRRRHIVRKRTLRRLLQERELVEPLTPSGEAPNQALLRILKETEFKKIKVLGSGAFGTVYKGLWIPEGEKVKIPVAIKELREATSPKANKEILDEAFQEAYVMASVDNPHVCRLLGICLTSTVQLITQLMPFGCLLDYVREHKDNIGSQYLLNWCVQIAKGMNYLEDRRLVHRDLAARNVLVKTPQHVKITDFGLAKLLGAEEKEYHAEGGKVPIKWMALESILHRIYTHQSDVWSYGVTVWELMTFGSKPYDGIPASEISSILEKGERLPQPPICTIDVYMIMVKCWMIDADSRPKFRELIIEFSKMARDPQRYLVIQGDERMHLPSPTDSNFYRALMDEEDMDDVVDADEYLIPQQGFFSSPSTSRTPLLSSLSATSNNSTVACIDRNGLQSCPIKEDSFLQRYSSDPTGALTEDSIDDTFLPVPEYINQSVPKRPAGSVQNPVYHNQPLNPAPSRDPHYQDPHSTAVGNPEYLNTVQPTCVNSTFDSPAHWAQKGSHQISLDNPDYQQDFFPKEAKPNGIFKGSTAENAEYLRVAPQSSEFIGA
T4 sequence (P00533 with tags, fused parts or gaps INS770SVD): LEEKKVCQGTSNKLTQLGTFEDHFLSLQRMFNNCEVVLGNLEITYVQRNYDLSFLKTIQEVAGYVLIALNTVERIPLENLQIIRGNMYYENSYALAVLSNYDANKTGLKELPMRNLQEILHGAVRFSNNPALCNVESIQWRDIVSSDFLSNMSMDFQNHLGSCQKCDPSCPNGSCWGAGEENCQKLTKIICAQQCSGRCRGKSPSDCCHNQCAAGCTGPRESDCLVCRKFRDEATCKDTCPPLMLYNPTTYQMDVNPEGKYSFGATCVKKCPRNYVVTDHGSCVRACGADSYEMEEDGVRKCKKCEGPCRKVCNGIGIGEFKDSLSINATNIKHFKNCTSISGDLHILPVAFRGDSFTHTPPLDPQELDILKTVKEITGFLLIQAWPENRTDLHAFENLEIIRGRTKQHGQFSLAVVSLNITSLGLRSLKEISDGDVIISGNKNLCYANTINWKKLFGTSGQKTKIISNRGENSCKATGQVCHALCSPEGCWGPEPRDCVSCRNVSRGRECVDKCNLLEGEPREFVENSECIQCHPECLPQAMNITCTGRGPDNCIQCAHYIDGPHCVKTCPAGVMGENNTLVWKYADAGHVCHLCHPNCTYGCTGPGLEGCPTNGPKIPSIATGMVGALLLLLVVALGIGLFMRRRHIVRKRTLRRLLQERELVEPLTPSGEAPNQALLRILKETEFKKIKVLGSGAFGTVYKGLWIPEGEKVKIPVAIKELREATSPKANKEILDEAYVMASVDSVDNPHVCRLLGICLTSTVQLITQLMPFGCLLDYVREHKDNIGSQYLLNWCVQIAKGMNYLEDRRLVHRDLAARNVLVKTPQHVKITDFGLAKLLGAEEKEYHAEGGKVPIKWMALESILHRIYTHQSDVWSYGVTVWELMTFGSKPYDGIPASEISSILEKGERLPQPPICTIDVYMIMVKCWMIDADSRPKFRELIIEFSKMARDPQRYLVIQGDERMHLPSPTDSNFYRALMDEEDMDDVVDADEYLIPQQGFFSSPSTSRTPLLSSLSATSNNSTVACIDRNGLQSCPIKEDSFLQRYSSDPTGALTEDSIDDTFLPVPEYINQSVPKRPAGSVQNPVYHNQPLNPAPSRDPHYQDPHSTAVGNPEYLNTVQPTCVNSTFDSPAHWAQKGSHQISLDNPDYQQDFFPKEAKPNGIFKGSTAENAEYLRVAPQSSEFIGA
T3 sequence (P00533 with tags, fused parts or gaps INS769ASV): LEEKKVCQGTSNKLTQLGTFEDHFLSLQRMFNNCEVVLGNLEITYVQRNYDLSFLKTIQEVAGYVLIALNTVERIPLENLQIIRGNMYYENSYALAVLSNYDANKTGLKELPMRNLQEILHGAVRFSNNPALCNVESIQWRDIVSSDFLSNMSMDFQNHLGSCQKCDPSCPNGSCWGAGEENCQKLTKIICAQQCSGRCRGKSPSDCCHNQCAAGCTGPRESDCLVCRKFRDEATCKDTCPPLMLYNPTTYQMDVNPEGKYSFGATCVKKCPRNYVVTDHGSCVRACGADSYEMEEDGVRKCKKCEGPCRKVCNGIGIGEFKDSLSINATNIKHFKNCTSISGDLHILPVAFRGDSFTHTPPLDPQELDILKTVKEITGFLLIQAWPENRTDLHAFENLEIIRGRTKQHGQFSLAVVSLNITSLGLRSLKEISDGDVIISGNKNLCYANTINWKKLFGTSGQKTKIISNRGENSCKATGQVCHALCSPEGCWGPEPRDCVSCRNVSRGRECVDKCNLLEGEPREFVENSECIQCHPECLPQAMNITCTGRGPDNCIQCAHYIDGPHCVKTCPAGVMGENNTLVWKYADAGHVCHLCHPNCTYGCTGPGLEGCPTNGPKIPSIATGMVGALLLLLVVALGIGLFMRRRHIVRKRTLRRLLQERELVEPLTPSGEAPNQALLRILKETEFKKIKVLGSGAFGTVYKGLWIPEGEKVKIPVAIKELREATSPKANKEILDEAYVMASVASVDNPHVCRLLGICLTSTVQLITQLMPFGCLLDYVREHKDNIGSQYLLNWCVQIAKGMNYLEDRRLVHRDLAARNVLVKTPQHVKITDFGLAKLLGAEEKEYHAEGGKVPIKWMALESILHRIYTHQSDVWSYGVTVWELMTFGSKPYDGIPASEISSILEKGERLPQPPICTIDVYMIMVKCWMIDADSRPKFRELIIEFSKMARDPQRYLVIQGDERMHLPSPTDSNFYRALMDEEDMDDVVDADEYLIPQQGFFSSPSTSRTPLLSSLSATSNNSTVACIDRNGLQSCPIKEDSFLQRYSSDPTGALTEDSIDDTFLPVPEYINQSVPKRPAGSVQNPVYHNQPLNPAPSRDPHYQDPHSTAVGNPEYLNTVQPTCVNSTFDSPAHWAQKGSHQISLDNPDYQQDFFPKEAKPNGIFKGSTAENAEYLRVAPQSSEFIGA
T1 sequence (P00533 25-1210): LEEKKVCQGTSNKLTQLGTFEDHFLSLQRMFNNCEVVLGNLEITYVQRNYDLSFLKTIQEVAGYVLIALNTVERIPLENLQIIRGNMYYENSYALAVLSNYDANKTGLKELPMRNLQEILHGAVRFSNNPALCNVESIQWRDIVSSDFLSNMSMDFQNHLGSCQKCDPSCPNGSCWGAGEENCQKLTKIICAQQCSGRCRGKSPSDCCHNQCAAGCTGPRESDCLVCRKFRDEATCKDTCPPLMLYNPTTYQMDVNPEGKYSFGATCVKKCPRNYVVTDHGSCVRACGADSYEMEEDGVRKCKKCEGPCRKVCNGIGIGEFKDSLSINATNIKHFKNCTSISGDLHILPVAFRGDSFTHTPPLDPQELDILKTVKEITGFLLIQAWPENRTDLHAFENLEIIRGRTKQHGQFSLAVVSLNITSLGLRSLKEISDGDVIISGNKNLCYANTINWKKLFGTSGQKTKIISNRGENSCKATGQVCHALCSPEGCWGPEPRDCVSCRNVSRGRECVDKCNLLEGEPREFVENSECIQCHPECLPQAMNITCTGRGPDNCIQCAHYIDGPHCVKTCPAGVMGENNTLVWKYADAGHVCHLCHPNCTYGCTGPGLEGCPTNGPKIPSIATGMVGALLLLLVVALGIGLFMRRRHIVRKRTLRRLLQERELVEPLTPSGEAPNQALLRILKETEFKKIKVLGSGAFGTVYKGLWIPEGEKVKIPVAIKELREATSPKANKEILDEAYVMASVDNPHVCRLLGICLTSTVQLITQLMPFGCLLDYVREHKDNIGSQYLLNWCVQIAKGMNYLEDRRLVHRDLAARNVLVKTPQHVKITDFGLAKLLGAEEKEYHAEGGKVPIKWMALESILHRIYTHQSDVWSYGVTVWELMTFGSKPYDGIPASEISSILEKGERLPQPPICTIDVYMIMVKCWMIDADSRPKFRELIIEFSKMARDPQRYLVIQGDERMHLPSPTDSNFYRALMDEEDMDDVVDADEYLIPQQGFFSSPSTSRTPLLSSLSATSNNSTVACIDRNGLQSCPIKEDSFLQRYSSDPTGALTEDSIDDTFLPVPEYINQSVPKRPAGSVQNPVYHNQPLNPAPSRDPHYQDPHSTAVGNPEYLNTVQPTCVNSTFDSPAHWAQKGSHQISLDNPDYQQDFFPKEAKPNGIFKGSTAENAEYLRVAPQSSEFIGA

For `COc1c(Cl)cccc1Nc1c(-c2ccncc2F)[nH]c2c1C(=O)NC[C@H]2CCN(C)C` [compound 486, (7R)-3-[(3-chloro-2-methoxyphenyl)amino]-7-[2-(dimethylamino)ethyl]-2-(3-fluoropyridin-4-yl)-1H,5H,6H,7H-pyrrolo[3,2-c]pyridin-4-one], the IC50 (on EGFR WT (Ba/F3 cells); in experiment [1]; in experiment [2]; in experiment [3]) was above 1000 nM each time.
For the compound `COc1c(Cl)cccc1Nc1c(-c2ccncc2F)[nH]c2c1C(=O)NC[C@]21CCN(C(C)=O)C1` [compound 491], the IC50 (at EGFR WT (Ba/F3 cells); in experiment [1]; in experiment [2]; in experiment [3]) was above 1000 nM each time.
Take `COc1c(Cl)cccc1Nc1c(-c2ccncc2F)[nH]c2c1C(=O)NC[C@@]21CCN(C(C)=O)C1` [compound 492]: the IC50 (at EGFR WT (Ba/F3 cells); in experiment [1]; in experiment [2]; in experiment [3]) was above 1000 nM each time.
On to `COc1c(Cl)cccc1Nc1c(-c2ccncc2F)[nH]c2c1C(=O)NC[C@@]21CCN(S(C)(=O)=O)C1` [compound 493], for which the IC50 at EGFR WT (Ba/F3 cells) is above 1000 nM; in experiment [1] it was 100 to 1000 nM; in experiment [2] it was 100 to 1000 nM; in experiment [3], 100 to 1000 nM.
`COc1c(Cl)cccc1Nc1c(-c2ccncc2F)[nH]c2c1C(=O)NC[C@]21CCN(S(C)(=O)=O)C1` [compound 494]: the IC50 (at EGFR WT (Ba/F3 cells); in experiment [1]; in experiment [2]; in experiment [3]) was above 1000 nM throughout.
Consider `COc1c(Cl)cccc1Nc1c(-c2ccncc2F)[nH]c2c1C(=O)NC[C@H]2CC(C)(C)O` [compound 495, (7R)-3-[(3-chloro-2-methoxyphenyl)amino]-2-(3-fluoropyridin-4-yl)-7-(2-hydroxy-2-methylpropyl)-1H,5H,6H,7H-pyrrolo[3,2-c]pyridin-4-one], for which the IC50 on EGFR WT (Ba/F3 cells) is above 1000 nM; in experiment [1], below 100 nM; in experiment [2] it was below 100 nM; in experiment [3] it was below 100 nM.
In the case of `COc1cc2nccc(-c3[nH]c4c(c3Nc3cccc(Cl)c3OC)C(=O)NCC4)c2nc1OCCN(C)C` [compound 501, 3-[(3-chloro-2-methoxyphenyl)amino]-2-{6-[2-(dimethylamino)ethoxy]-7-methoxy-1,5-naphthyridin-4-yl}-1H,5H,6H,7H-pyrrolo[3,2-c]pyridin-4-one], the 50% inhibitory concentration (IC50) was 100 to 1000 nM on EGFR WT (Ba/F3 cells), below 100 nM in experiment [1], below 100 nM in experiment [2] and below 100 nM in experiment [3].
Regarding `COc1c(Cl)cccc1Nc1c(-c2ccnc3ccc(OCCCN4CCOCC4)nc23)[nH]c2c1C(=O)NCC2` [compound 503, 3-[(3-chloro-2-methoxyphenyl)amino]-2-{6-[3-(morpholin-4-yl)propoxy]-1,5-naphthyridin-4-yl}-1H,5H,6H,7H-pyrrolo[3,2-c] pyridin-4-one], the IC50 was 100 to 1000 nM at EGFR WT (Ba/F3 cells), below 100 nM in experiment [1], below 100 nM in experiment [2] and below 100 nM in experiment [3].
Consider `COc1c(Cl)cccc1Nc1c(-c2ccnc3ccc(OCCN4CCOCC4)nc23)[nH]c2c1C(=O)NCC2` [compound 504, 3-[(3-chloro-2-methoxyphenyl)amino]-2-{6-[2-(morpholin-4-yl)ethoxy]-1,5-naphthyridin-4-yl}-1H,5H,6H,7H-pyrrolo[3,2-c] pyridin-4-one], for which the IC50 is 100 to 1000 nM on EGFR WT (Ba/F3 cells), 100 to 1000 nM in experiment [1], below 100 nM in experiment [2] and below 100 nM in experiment [3].
With `COc1c(Cl)cccc1Nc1c(-c2ccnc3cnc(OCCCN4CCOCC4)nc23)[nH]c2c1C(=O)NCC2` [compound 505, 3-[(3-chloro-2-methoxyphenyl)amino]-2-{2-[3-(morpholin-4-yl)propoxy]pyrido[3,2-d]pyrimidin-8-yl}-1H,5H,6H,7H-pyrrolo[3,2-c]pyridin-4-one], the IC50 at EGFR WT (Ba/F3 cells) is above 1000 nM; in experiment [1], 100 to 1000 nM; in experiment [2], below 100 nM; in experiment [3], below 100 nM.
In the case of `COc1c(Cl)cccc1Nc1c(-c2ccnc3cnc(OCCN4CCOCC4)nc23)[nH]c2c1C(=O)NCC2` [compound 506, 3-[(3-chloro-2-methoxyphenyl)amino]-2-{2-[2-(morpholin-4-yl)ethoxy]pyrido[3,2-d]pyrimidin-8-yl}-1H,5H,6H,7H-pyrrolo[3,2-c]pyridin-4-one], the IC50 at EGFR WT (Ba/F3 cells) is above 1000 nM; in experiment [1], 100 to 1000 nM; in experiment [2], 100 to 1000 nM; in experiment [3], 100 to 1000 nM.
As to `COc1c(Cl)cccc1Nc1c(-c2ccnc(Nc3cnoc3C)n2)[nH]c2c1C(=O)NCC2` [compound 510, 3-[(3-chloro-2-methoxyphenyl)amino]-2-{2-[(5-methyl-1,2-oxazol-4-yl)amino]pyrimidin-4-yl}-1H,5H,6H,7H-pyrrolo[3,2-c]pyridin-4-one], the IC50 at EGFR WT (Ba/F3 cells) was above 1000 nM; in experiment [1], 100 to 1000 nM; in experiment [2] it was below 100 nM; in experiment [3] it was below 100 nM.
Turning to `COc1c(Cl)cccc1Nc1c(-c2ccnc(Nc3cc(C)n(C)n3)n2)[nH]c2c1C(=O)NCC2` [compound 513, 3-[(3-chloro-2-methoxyphenyl)amino]-2-{2-[(1,5-dimethylpyrazl-3-yl)amino]pyrimidin-4-yl}-1H,5H,6H,7H-pyrrolo[3,2-c]pyridin-4-one], the IC50 (on EGFR WT (Ba/F3 cells); in experiment [1]; in experiment [2]; in experiment [3]) was below 100 nM each time.
Consider `COc1c(Cl)cccc1Nc1c(-c2ccnc(Nc3cnn(C(C)C)c3)n2)[nH]c2c1C(=O)NCC2` [compound 516, 3-[(3-chloro-2-methoxyphenyl)amino]-2-{2-[(1-isopropylpyrazol-4-yl)amino]pyrimidin-4-yl}-1H,5H,6H,7H-pyrrolo[3,2-c]pyridin-4-one], for which the half-maximal inhibitory concentration (IC50) at EGFR WT (Ba/F3 cells) is 100 to 1000 nM; in experiment [1], below 100 nM; in experiment [2] it was below 100 nM; in experiment [3], below 100 nM.
For the compound `COc1c(Cl)cccc1Nc1c(-c2ccnc(Nc3cnn(C4CCOCC4)c3)n2)[nH]c2c1C(=O)NCC2` [compound 517, 3-[(3-chloro-2-methoxyphenyl)amino]-2-(2-{[1-(oxan-4-yl)pyrazol-4-yl]amino}pyrimidin-4-yl)-1H,5H,6H,7H-pyrrolo[3,2-c]pyridin-4-one], the IC50 on EGFR WT (Ba/F3 cells) is 100 to 1000 nM; in experiment [1], 100 to 1000 nM; in experiment [2], below 100 nM; in experiment [3], below 100 nM.
Take `COc1c(Cl)cccc1Nc1c(-c2ccnc(Nc3ccc(N4CCN(C)CC4)nc3)n2)[nH]c2c1C(=O)NCC2` [compound 518, 3-[(3-chloro-2-methoxyphenyl)amino]-2-(2-{[6-(4-methylpiperazin-1-yl)pyridin-3-yl]amino}pyrimidin-4-yl)-1H,5H,6H,7H-pyrrolo[3,2-c]pyridin-4-one]: the IC50 is 100 to 1000 nM on EGFR WT (Ba/F3 cells), below 100 nM in experiment [1], below 100 nM in experiment [2] and below 100 nM in experiment [3].
For the compound `C=CC(=O)N1CC[C@]2(CNC(=O)c3c2[nH]c(-c2ccncc2F)c3Nc2cccc(Cl)c2OC)C1` [compound 520], the IC50 on EGFR WT (Ba/F3 cells) is 100 to 1000 nM; in experiment [1], below 100 nM; in experiment [2], 100 to 1000 nM; in experiment [3], 100 to 1000 nM.
In the case of `C=CC(=O)N1CC[C@@]2(CNC(=O)c3c2[nH]c(-c2ccncc2F)c3Nc2cccc(Cl)c2OC)C1` [compound 521], the IC50 at EGFR WT (Ba/F3 cells) is above 1000 nM; in experiment [1] it was 100 to 1000 nM; in experiment [2] it was 100 to 1000 nM; in experiment [3], 100 to 1000 nM.
Consider `COc1c(Cl)cccc1Nc1c(-c2ccnc(-c3ccn(C)n3)n2)[nH]c2c1C(=O)NCC2` [compound 544, 3-[(3-chloro-2-methoxyphenyl)amino]-2-[2-(1-methylpyrazol-3-yl)pyrimidin-4-yl]-1H,5H,6H,7H-pyrrolo[3,2-c]pyridin-4-one], for which the IC50 at EGFR WT (Ba/F3 cells) was above 1000 nM; in experiment [1] it was 100 to 1000 nM; in experiment [2] it was 100 to 1000 nM; in experiment [3], 100 to 1000 nM.
In the case of `COc1c(Cl)cccc1Nc1c(-c2ccnc3ccc(OC4CC4)nc23)[nH]c2c1C(=O)NCC2` [compound 677, 3-[(3-chloro-2-methoxyphenyl)amino]-2-(6-cyclopropoxy-1,5-naphthyridin-4-yl)-1H,5H,6H,7H-pyrrolo[3,2-c]pyridin-4-one], the concentration for half-maximal inhibition (IC50) (at EGFR WT (Ba/F3 cells); in experiment [1]; in experiment [2]; in experiment [3]) was below 100 nM each time.
As for `COc1c(Cl)cccc1Nc1c(-c2ccnc(NC3CCOCC3)n2)[nH]c2c1C(=O)NCC2` [compound 708, 3-((3-chloro-2-methoxyphenyl)amino)-2-(2-((tetrahydro-2H-pyran-4-yl)amino)pyrimidin-4-yl)-1,5,6,7-tetrahydro-4H-pyrrolo[3,2-c]pyridin-4-one], the IC50 (at EGFR WT (Ba/F3 cells); in experiment [1]; in experiment [2]; in experiment [3]) was above 1000 nM each time.
